Assay results: patent US9408389B2 (Rohm and Haas Company, priority 2013, dated 2016)

Legend:
Chlorella sp. ATCC 7516 = test: Algal efficacy testing of dry paint films (modified ASTM D5589-09), Chlorella; format: cell-based; conditions: 672 h
Description: (§1) Slurries containing 33% flurochloridone were post added to a white, acrylic/silicone based outdoor paint free of biocides to give a total active ingredient concentration of 10000 and 1000 ppm respectively. These paints were then diluted with an antimicrobial free acrylic/silicone based paint and mixed to prepare targeted concentrations of antimicrobial compounds for the testing. The total biocides concentrations tested were 125, 250, 500, 1000, 2000 and 5000 ppm. After biocides addition or dilution, the paints were mixed 90 seconds with the horse power shaker (AXEL 75M3372/Agitateur SO-10MI) until uniformity was achieved. Paints containing different antimicrobial compounds at the same levels were mixed together in order to obtain the desired ratio of antimicrobial compounds. After one day, the paints were applied to Schleicher & Schuell filter paper at 280 μm wet film thickness and dried for 3 days at room temperature avoiding direct exposure to sunlight. Square discs (1.6 cm×1.6 cm) were cut out from each panel and were used as the substrate for algal efficacy tests. This sample size allowed for an agar border when the sample disc was placed into the well of the test plate. […]
(§2) At the end of the four week incubation period, the samples were scored for percent inhibition regarding visible algal growth compared to the blank sample (0% inhibition).
(§3) The SI is calculated based on F. C. […]

[1] = system: Stichococcus bacillaris SAG 379-1a / CCAP 379/1a; test: Algal efficacy testing of dry paint films (modified ASTM D5589-09), Stichococcus; format: cell-based; conditions: 672 h
Description: as §1, §2, §3

SMILES	inhibition at 2000 ppm (Chlorella sp. ATCC 7516; total conc 2000 ppm in paint, 4 weeks, visible algal growth vs blank)	inhibition at 2000 ppm ([1]; Stichococcus, total conc 2000 ppm in paint, 4 weeks, visible algal growth vs blank)	inhibition at 5000 ppm (Chlorella sp. ATCC 7516)	inhibition at 5000 ppm [1]
O=C1C(Cl)C(CCl)CN1c1cccc(C(F)(F)F)c1 (stereo not shown) [Flurochloridone, 3-chloro-4-(chloromethyl)-1-[3-(trifluoromethyl)phenyl]-2-pyrrolidinone]	60%	50%		
O=c1[nH]c2c(c(=O)n1C1CCCCC1)CCC2 [Lenacil, 3-cyclohexyl-1,5,6,7-tetrahydrocyclopentapyrimidine-2,4(3H)-dione]			45%	65%
